What was measured:
MDA-MB-231 [1] = test: Potency index, ratio of tamoxifen IC50 to test compound IC50 for cytotoxicity against human MDA-MB-231 cells assessed as cell growth inhibition incubated for 72 hrs by MTT assay; type: functional
HEK293 = test: Cytotoxicity against human HEK293 cells assessed as cell growth inhibition incubated for 72 hrs by MTT assay; type: cell-based; conditions: HEK293, 72 h
Thymidylate synthase [2] = molecular target: T1, Thymidylate synthase (Homo sapiens, UniProt P04818); test: Inhibition of human thymidylate synthase expressed in Escherichia coli using 6R,S-tetrahydrofolate and dUMP as substrate by spectrophotometric analysis
T1 sequence (P04818 whole entry): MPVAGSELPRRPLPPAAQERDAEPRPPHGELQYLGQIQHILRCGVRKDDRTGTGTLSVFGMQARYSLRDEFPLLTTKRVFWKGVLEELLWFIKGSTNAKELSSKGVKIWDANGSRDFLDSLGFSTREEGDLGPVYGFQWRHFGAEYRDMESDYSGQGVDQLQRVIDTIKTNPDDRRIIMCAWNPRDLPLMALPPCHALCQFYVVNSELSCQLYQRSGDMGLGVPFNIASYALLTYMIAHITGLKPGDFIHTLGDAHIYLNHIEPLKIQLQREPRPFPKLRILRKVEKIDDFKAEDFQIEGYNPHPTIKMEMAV

MCF7 [3] = test: Induction of cell cycle arrest in human MCF7 cells assessed as increase in accumulation at G2/M phase at 10 uM incubated for 48 hrs by PI staining based flow cytometry analysis relative to control; type: functional
MCF7 [4] = test: Induction of cell cycle arrest in human MCF7 cells assessed as accumulation at sub-G1 phase at 10 uM incubated for 48 hrs by PI staining based flow cytometry analysis (reference value: 3.7 %); type: functional
MCF7 [5] = test: Induction of apoptosis in human MCF7 cells assessed as total apoptotic cells at 10 uM incubated for 48 hrs by annexin-V-FITC and PI staining based flow cytometry analysis (reference value: 8.3 %); type: functional
MCF7 [6] = test: Potency index, ratio of 5-fluorouracil IC50 to test compound IC50 for cytotoxicity against human MCF7 cells assessed as cell growth inhibition incubated for 72 hrs by MTT assay; type: functional
MCF7 [7] = test: cells; conditions: Homo sapiens, MCF7, 72 h
Description: Cytotoxicity against human MCF7 cells assessed as cell growth inhibition incubated for 72 hrs by MTT assay

MDA-MB-231 [8] = test: cells; conditions: Homo sapiens, MDA-MB-231, 72 h
Description: Cytotoxicity against human MDA-MB-231 cells assessed as cell growth inhibition incubated for 72 hrs by MTT assay

MDA-MB-231 [9] = test: Potency index, ratio of 5-fluorouracil IC50 to test compound IC50 for cytotoxicity against human MDA-MB-231 cells assessed as cell growth inhibition incubated for 72 hrs by MTT assay; type: functional
Thymidylate synthase [10] = molecular target: T1, Thymidylate synthase; test: Inhibition of thymidylate synthase (unknown origin)

Row | Compound | IC50 (MCF7 [7]) [µM] | IC50 (MDA-MB-231 [8]) [µM] | further results
1 | Cc1ccc(C(C)C)c(OCc2cn(-c3ccccc3C)nn2)c1 | 6.17 | 10.5 | Ratio IC50 (MDA-MB-231 [1]): 1.42; IC50 (HEK293): > 50 µM; IC50 (Thymidylate synthase [2]): 2.21 µM; Activity (MCF7 [3]): 37.3%; Activity (MCF7 [4]): 21.4%; Activity (MCF7 [5]): 29.4%; Ratio IC50 (MCF7 [6]): 3.2
2 | Cc1ccc(C(C)C)c(OCc2cn(-c3ccc([N+](=O)[O-])cc3)nn2)c1 | 32.2 | 41 | –
3 | Nc1nc2[nH]cc(CCc3ccc(C(=O)N[C@@H](CCC(=O)O)C(=O)O)cc3)c2c(=O)[nH]1 [PEMETREXED] | – | – | IC50 (Thymidylate synthase [2]): 5.39 µM
4 | Cc1ccc(C(C)C)c(OCc2cn(-c3ccc(F)cc3)nn2)c1 | 22.1 | 32.6 | –
5 | O=c1[nH]cc(F)c(=O)[nH]1 [FLUOROURACIL] | 20.1 | 25.3 | –
6 | Cc1ccc(C(C)C)c(OCc2cn(-c3cccc(C(=O)O)c3)nn2)c1 | 10.3 | 11.4 | Ratio IC50 (MDA-MB-231 [1]): 1.3; IC50 (Thymidylate synthase [2]): 4.27 µM; Ratio IC50 (MCF7 [6]): 1.95; Ratio IC50 (MDA-MB-231 [9]): 2.2
7 | CC/C(=C(\c1ccccc1)c1ccc(OCCN(C)C)cc1)c1ccccc1 [TAMOXIFEN] | 5.62 | 15 | –
8 | COc1ccc(-n2cc(COc3cc(C)ccc3C(C)C)nn2)cc1 | 25.4 | 45.3 | –
9 | Cc1ccc(C(C)C)c(OCc2cn(-c3ccccc3)nn2)c1 | 29.9 | 45.1 | –
10 | Cc1ccc(C(C)C)c(OCc2cn(-c3cccc4c(-n5cc(COc6cc(C)ccc6C(C)C)nn5)cccc34)nn2)c1 | 18.1 | 22.1 | –
11 | Cc1ccc(C(C)C)c(OCc2cn(-c3cccc(Cl)c3)nn2)c1 | 32.1 | 45.2 | –
12 | Cc1cccc(-n2cc(COc3cc(C)ccc3C(C)C)nn2)c1 | 28.1 | 31.2 | –
13 | Cc1ccc(C(C)C)c(OCc2cn(-c3ccccc3Cl)nn2)c1 | 15.6 | 26.6 | Ratio IC50 (MCF7 [6]): 1.2
14 | Cc1ccc(C(C)C)c(OCc2cn(-c3ccc(O)cc3)nn2)c1 | 45.4 | 30.4 | –
15 | CCOC(=O)C1CCC(c2ccccc2)N1C(=O)c1cn(CCCNC(=O)C(F)(F)F)nn1 (stereo not given) | – | – | IC50 (Thymidylate synthase [10]): 0.057 µM

— ChEMBL document CHEMBL4819101, “Design, synthesis and molecular docking studies of thymol based 1,2,3-triazole hybrids as thymidylate synthase inhibitors and apoptosis inducers against breast cancer cells” (Bioorg Med Chem, 2021)
